Results on four compounds are retold here after publication PMC4385830, “Group I Paks as therapeutic targets in NF2-deficient meningioma” (Oncotarget, 2015).

The test system of test [1] is KT21-MG1-Luc5D intracranial xenografts. Description: Orthotopic meningioma model, bioluminescence imaging. Conditions: SCID mice; oral gavage 90 mg/kg/day; 2 weeks; BLI.
From the text: Eight-week-old SCID mice were anesthetized with ketamine and their heads were stabilized in a small animal stereotaxic instrument. A midline sagittal incision was made on the cranial skin. A burr hole was drilled in the skull with coordinated 1.5 mm anterior and 1.5 mm lateral to the right from the bregma and a 5-μl Hamilton syringe loaded with cells was slowly inserted through the burr hole and ~0.5 mm downward to the skull base. The incision was closed using surgical absorbable gut suture.
Mice transplanted with meningioma cells were imaged using Xenogen IVIS Spectrum (Caliper, MA). Mice were injected intraperitoneally with Rediject D-Luciferin Ultra at 150 mg/kg under anesthetized with isofluorane. Luciferase activity was measured and all bioluminescence imaging was conducted when perk signal was reached. Once tumors were established (~3 weeks post-transplantation), mice were divided into groups for shRNA studies or drug treatments.
For drugs treatment, mice were dosed with Pak inhibitors daily for 14–21 days and tumor growth was monitored every week by BLI. Mean luminescence for each treatment groups (n = 5) was calculated as described previously.
In the next test the test system is Arachnoid cell AC07. Description: Cell viability, MTT assay. The format is cell-based. The following applies: NF2+/+, 72 hrs. How it is done: (§1) Cells were plated at 3 × 10^3 cells per well in 96-well plates overnight and treated with various concentrations of Pak inhibitors for 72 hours. Cell viability was measured by MTT assay and the half maximal inhibitory concentration (IC50) was calculated.

For the next test, the system named is Benign Ben-Men-1. Description: Cell viability, MTT assay. The format is cell-based. Conditions: for IC50: NF2−/−, 72 hrs, MTT; for effect on growth of cells: Ben-Men, 3 days, GSK690693 effect only at high doses. How it is done: as §1
A general note: Formazan colour is commonly taken as a measure of viable cells.

A further test has as its system Malignant MN525. Description: Cell viability, MTT assay. The following applies: NF2+/+, 72 hrs. The class given is cell-based. How it is done: as §1
The next test relates to Benign MN328. Briefly: Cell viability, MTT assay. The class given is cell-based. The following applies: NF2+/+, 72 hrs. How it is done:
as §1

The next test concerns Malignant KT21-MG1. Description: Cell viability, MTT assay. The format is cell-based. The following applies: for IC50: NF2−/−, 72 hrs, MTT; for effect on growth of cells: KT21, 3 days, GSK690693 effect only at high doses. How it is done: as §1
A further test deals with KT21 cells. Description: Apoptosis, Annexin V positive cells by flow cytometry. The class given is cell-based. The following applies: 3 days, vs DMSO. How it is done: For detection of apoptosis, subconfluent cells were plated in 60-mm plate and treated with inhibitors for 3 days. Cells were collected, washed and resuspended in 1x binding buffer with Annexin V-EGFP and propidium iodide (BioVision, CA) and incubated at room temperature for 5 min in dark. Apoptosis was measured using FACS with collecting 10,000 events per sample.
On the technique in general: In flow cytometry, cells or beads pass a laser one at a time.

A further test deals with KT21 or Ben-Men cells. Description: Immunoblot of signaling pathways. The format is cell-based. How it is done:
(§2) Protein concentration was determined, and equal amount of total proteins were separated by SDS-PAGE. […] GAPDH and β-actin were used as loading control.

For another test, the system named is Ben-Men cells. Description: Immunoblot of signaling pathways. The class given is cell-based. How it is done: as §2
A general note: A western blot detects proteins with antibodies after separation by electrophoresis.

Molecules are shown by their SMILES.

Take `CCn1c(=O)c(-c2ccc(-c3cncs3)cc2Cl)cc2cnc(Nc3ccc(N4CCN(C)CC4)cc3)nc21` [Frax597]: in test [1], the “impaired KT21 tumor growth compared to vehicle cohort” value amounted to 50%. The IC50 (usually the concentration that gives 50% inhibition) in the test on Arachnoid cell AC07 was 1.18 µM; in the test with Benign Ben-Men-1, 0.393 µM; in the test on Malignant MN525, 1.59 µM; in the test with Benign MN328, 2.81 µM; in the test on Malignant KT21-MG1 it was 2.93 µM. Moreover, the “number of apoptotic cells” value in the test on KT21 cells was “substantial increase”. In addition, the “phosphorylation of Pak and Mek1 (at Ser298)” value in the test with KT21 or Ben-Men cells (inhibitors at IC50 concentration) is reported as “dramatically inhibited”. The “basal level (expression) of β-catenin” value with Ben-Men cells is on record as “did not impact”. The “phosphorylation of β-catenin” value with Ben-Men cells was “diminished”.

Regarding `CCn1c(-c2nonc2N)nc2c(C#CC(C)(C)O)ncc(OC[C@H]3CCCNC3)c21` [GSK690693], the half-inhibitory concentration (IC50) with Arachnoid cell AC07 is greater than 20 µM; in the test on Benign Ben-Men-1, 3.27 µM; with Malignant MN525 it was greater than 20 µM; with Benign MN328, greater than 20 µM; with Malignant KT21-MG1, 4.24 µM. Also, the “effect on growth of cells” value with Benign Ben-Men-1 and in the test with Malignant KT21-MG1 was “impeded the growth” each time.

Regarding `Oc1ccc2ccccc2c1SSc1c(O)ccc2ccccc12` [IPA3, reference compound], the Pak activity entry with KT21 or Ben-Men cells (immunoblot) is reported as “paradoxical stimulation”. For the same compound, the “basal level (expression) of β-catenin” value with Ben-Men cells is listed as “induction”.

Consider `O=C(NOC[C@H](O)CO)c1ccc(F)c(F)c1Nc1ccc(I)cc1F` [PD325901], for which the 50% inhibitory concentration (IC50) in the test on Arachnoid cell AC07 was greater than 20 µM; in the test on Benign Ben-Men-1, greater than 20 µM; with Malignant MN525, greater than 20 µM; with Benign MN328, greater than 20 µM; in the test on Malignant KT21-MG1 it was greater than 7 µM. The “effect on growth of cells” value in the test on Benign Ben-Men-1 and in the test with Malignant KT21-MG1 was “no effect” each time.
